Experiment [1] deals with T1, cytoplasmic domain of the human CSF-1R (Homo sapiens, UniProt P07333).
T1 construct: Recombinant protein corresponding to the cytoplasmic domain of the human CSF-1R; purchased Invitrogen Corporation, Carlsbad, Calif; PV3249
T1 sequence (P07333 539-972 limits assumed): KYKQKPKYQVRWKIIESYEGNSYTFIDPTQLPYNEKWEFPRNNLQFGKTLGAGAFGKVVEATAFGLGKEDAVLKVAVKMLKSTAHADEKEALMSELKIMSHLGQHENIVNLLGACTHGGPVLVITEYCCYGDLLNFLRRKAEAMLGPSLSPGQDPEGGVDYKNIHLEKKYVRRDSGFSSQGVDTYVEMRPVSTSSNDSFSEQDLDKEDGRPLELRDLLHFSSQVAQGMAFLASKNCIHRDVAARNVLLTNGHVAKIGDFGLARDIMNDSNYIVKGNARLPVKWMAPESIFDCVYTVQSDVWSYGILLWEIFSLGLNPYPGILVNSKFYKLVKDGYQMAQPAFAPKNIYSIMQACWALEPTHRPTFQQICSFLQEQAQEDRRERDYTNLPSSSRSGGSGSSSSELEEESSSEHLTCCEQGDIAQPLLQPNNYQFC
Put plainly: In vitro kinase assay for CSF-1R (AlphaScreen). Format: biochemical. The note with it: tested at about 1 μM; read-out: CSF1RK 1 percent inhibition. The protocol: The kinase activity of various protein tyrosine kinases can be measured by providing ATP and a suitable peptide or protein tyrosine-containing substrate, and assaying the transfer of phosphate moiety to the tyrosine residue. Recombinant protein corresponding to the cytoplasmic domain of the human CSF-1R was purchased from Invitrogen Corporation, Carlsbad, Calif. U.S.A. (#PV3249). For each assay, test compounds were serially diluted, starting at 25 μM with 3 fold dilutions, in DMSO in 384 well plates then mixed with an appropriate kinase reaction buffer consisting of 50 mM Hepes, 5 mM MgCl2, 10 mM MnCl2, 0.1% BSA, pH 7.5, 1.0 mM dithiothreitol, 0.01% Tween 80 plus 1 μM ATP. Kinase protein and an appropriate biotinylated peptide substrate at 50 nM were added to give a final volume of 20 μL, reactions were incubated for 2 hours at room temperature and stopped by the addition of 10 μL of 45 mM EDTA, 50 mM Hepes pH 7.5. Added to the stopped reaction mix was 30 μL of PT66 Alphascreen beads (Perkin Elmer, Boston, Mass., U.S.A.). The reaction was incubated overnight and read on the Envision (Perkin Elmer). Phosphorylated peptide product was measured with the AlphaScreen system (Perkin Elmer) using acceptor beads coated with anti-phosphotyrosine antibody PT66 and donor beads coated with streptavidin that emit a fluorescent signal at the 520-620 nm emission wave length if in close proximity. The concentration of each compound for 50% inhibition (IC50) was calculated by non-linear regression using XL Fit data analysis software.
CSF-1R kinase was assayed in 50 mM Hepes pH 7.0, 5 mM MgCl2, 10 mM MnCl2, 1 mM DTT, 1 mg/mL BSA, 1.0 μM ATP, and 0.05 μM biotin-GGGGRPRAATF-NH2 (SEQ ID NO:1) peptide substrate. CSF-1R kinase was added at final concentration of 4 nM.

A further experiment has as its target T2, cKIT (Homo sapiens, UniProt P10721).
T2 construct: The kinase domain of cKIT was assayed in 50 mM Hepes; purchased Upstate 14-559
As to the kind of experiment: cKIT kinase in vitro biochemical assay (alphascreen). The note with it: tested at about 1 μM; read-out: CKIT percent inhibition. How it is done:
(§1) The IC50 values for the inhibition of RTKs were determined in the alphascreen format measuring the inhibition by compound of phosphate transfer to a substrate by the respective enzyme. Briefly, the respective RTK domain purchased as human recombinant protein (cKIT Upstate #14-559, PDGFRb Invitrogen #P3082) were incubated with serial dilutions of compound in the presence of substrate and ATP concentrations within 3 times the Km of the enzyme.
(§2) The kinase domain of cKIT was assayed in 50 mM Hepes, pH=7.5, 5 mM MgCl2, 10 mM MnCl2, 1 mM DTT, 0.1% BSA with 0.06 uM biotinylated peptide substrate (GGLFDDPSYVNVQNL-NH2) and 15 uM ATP (ATP KM apparent=15 uM). The kinase domain of PDGFRβ was assayed in 50 mM Hepes, pH=7.5, 20 mM MgCl2, 1 mM DTT, 0.1% BSA with 0.1 uM biotinylated peptide substrate (GGLFDDPSYVNVQNL-NH2) and 10 uM ATP (ATP KM apparent=25 uM). Reactions were incubated at room temperature for 3 to 4 hr and stopped with buffer (20 mM EDTA, 0.01% Tween-20 for both PDGFRb and cKIT). Alphascreen PY20 beads were added to the stopped cKIT reactions and PY20 Ab/Protein A Alphascreen beads were added to the PDGFRβ stopped reactions. Both reactions were incubated overnight and read on the Alphascreen reader. The concentration of compound for 50% inhibition (IC50) was calculated employing non-linear regression using XL-Fit data analysis software. As a control compound, staurosporine is run in every assay and a Z′>0.5 is required to validate results.

Another experiment has as its target T3, PDGFRb (Homo sapiens, UniProt P09619).
T3 construct: The kinase domain of PDGFRβ was assayed in 50 mM Hepes; purchased Invitrogen P3082
As to the kind of experiment: PDGFRb kinase in vitro biochemical assay (alphascreen). The note with it: tested at about 1 μM; read-out: PDGF RK BETA percent inhibition. How it is done: as §1, §2

T3 sequence (P09619 600-962 limits assumed): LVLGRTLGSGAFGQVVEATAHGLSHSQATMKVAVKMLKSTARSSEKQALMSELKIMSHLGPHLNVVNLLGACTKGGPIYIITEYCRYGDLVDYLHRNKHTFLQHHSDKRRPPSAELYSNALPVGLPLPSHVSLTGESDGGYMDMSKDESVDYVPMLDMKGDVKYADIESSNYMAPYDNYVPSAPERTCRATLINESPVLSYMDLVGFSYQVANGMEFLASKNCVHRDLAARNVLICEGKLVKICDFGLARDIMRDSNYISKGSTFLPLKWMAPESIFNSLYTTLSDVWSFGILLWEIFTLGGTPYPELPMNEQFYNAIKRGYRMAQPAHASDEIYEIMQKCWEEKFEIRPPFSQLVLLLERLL
T2 sequence (P10721 589-937 limits assumed): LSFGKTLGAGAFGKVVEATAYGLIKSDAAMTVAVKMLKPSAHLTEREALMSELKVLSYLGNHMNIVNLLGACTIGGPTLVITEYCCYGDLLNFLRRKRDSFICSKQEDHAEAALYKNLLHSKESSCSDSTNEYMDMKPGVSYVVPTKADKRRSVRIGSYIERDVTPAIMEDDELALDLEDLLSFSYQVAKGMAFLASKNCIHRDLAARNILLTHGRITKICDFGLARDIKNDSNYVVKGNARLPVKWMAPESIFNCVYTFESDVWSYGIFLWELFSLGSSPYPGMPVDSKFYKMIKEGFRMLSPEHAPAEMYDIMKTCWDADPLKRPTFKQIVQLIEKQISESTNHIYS

`C[C@H](Nc1nc2ccc(Oc3ccnc(Cl)n3)cc2s1)C1CCCCC1` [Compound 36, (S)-6-(2-chloropyrimidin-4-yloxy)-N-(1-cyclohexylethyl)benzo[d]thiazol-2-amine]: the values for the inhibition at 1 µM (in experiment [1]; at cKIT; on PDGFRb) were 59%, 19% and 0%, respectively.
The like results for `c1nc(Oc2ccc3nc(NCC4CCCCC4)sc3c2)c2sccc2n1` [Compound 38, N-(cyclohexylmethyl)-6-(thieno[3,2-d]pyrimidin-4-yloxy) benzo[d]thiazol-2-amine] were, in that order, 100%, 99% and 83%.
The like results for `C[C@H](Nc1nc2ccc(Oc3cc(-n4cncn4)ccn3)cc2s1)C1CCCCC1` [Compound 39, (S)-6-(4-(1H-1,2,4-triazol-1-yl)pyridin-2-yloxy)-N-(1-cyclohexylethyl) benzo[d]thiazol-2-amine] were, in that order, 27%, 33% and 0%.
The like results for `C[C@H](Nc1nc2ccc(Oc3cncc(-n4cncn4)n3)cc2s1)C1CCCCC1` [Compound 40, (S)-6-(6-(1H-1,2,4-triazol-1-yl)pyrazin-2-yloxy)-N-(1-cyclobexylethyl)benzo[d]thiazol-2-amine] were, in that order, 68%, 32% and 17%.
As to `O[C@@H]1CCCC[C@H]1Nc1nc2ccc(Oc3cncc(-n4cncn4)n3)cc2s1` [Compound 42, (1R,2R)-2-(6-(6-(1H-1,2,4-triazol-1-yl)pyrazin-2-yloxy)benzo[d]thiazol-2-ylamino)cyclohexanol], the inhibition (in general, the percentage by which the read-out fell short of the control) at 1 µM in experiment [1] was 51%; at cKIT, 9%; on PDGFRb it was 10%.
On the same counts, the results for `O[C@@H]1CCCC[C@H]1Nc1nc2ccc(Oc3cc(-n4cncn4)ncn3)cc2s1` [Compound 43, (1R,2R)-2-(6-(6-(1H-1,2,4-triazol-1-yl)pyrimidin-4-yloxy)benzo[d]thiazol-2-ylamino)cyclohexanol] are 57%, 15% and 14%.
On the same counts, the results for `CNC(=O)c1ccncc1Oc1ccc2nc(NCC3CCCCC3)sc2c1` [Compound 49, 3-(2-(cyclohexylmethylamino)benzo[d]thiazol-6-yloxy)-N-methylisonicotinamide] are 95%, 32% and 6%.
On the same counts, the results for `CNC(=O)c1cncc(Oc2ccc3nc(NCC4CCCCC4)sc3c2)n1` [Compound 50, 6-(2-(cyclohexylmethylamino)benzo [d]thiazol-6-yloxy)-N-methylpyrazine-2-carboxamide] are 98%, 32% and 11%.
Take `CNC(=O)c1cncc(Oc2ccc3nc(N[C@@H]4CCCC[C@H]4O)sc3c2)n1` [Compound 52, 6-(2-((1R,2R)-2-hydroxycyclohexylamino)benzo[d]thiazol-6-yloxy)-N-methylpyrazine-2-carboxamide]: the inhibition at 1 µM in experiment [1] turned out to be 78%; on cKIT, 33%; on PDGFRb, 12%.
The like results for `CNC(=O)c1ccc(Oc2ccc3nc(N[C@@H]4CCCC[C@H]4O)sc3c2)cn1` [Compound 54, 5-(2-((1R,2R)-2-hydroxycyclohexylamino)benzo[d]thiazol-6-yloxy)-N-methylpicolinamide] were, in that order, 87%, 56% and 13%.
The like results for `O[C@@H]1CCCC[C@H]1Nc1nc2ccc(Oc3cncc(-c4cn[nH]c4)c3)cc2s1` [Compound 55, (1R,2R)-2-(6-(5-(1H-pyrazol-4-yl)pyridin-3-yloxy)benzo [d]thiazo-2-ylamino)cyclohexanol] were, in that order, 100%, 84% and 19%.
The like results for `CCCn1cc(-c2cncc(Oc3ccc4nc(N[C@@H]5CCCC[C@H]5O)sc4c3)c2)cn1` [Compound 58, (1R,2R)-2-(6-(5-(1-propyl-1H-pyrazol-4-yl)pyridin-3-yloxy)benzo[d]thiazol-2-ylamino)cyclohexanol] were, in that order, 100%, 86% and 7%.
On to `O[C@@H]1CCCC[C@H]1Nc1nc2ccc(Oc3cncc(-c4cnn(CCN5CCOCC5)c4)c3)cc2s1` [Compound 59, (1R,2R)-2-(6-(5-(1-(2-morpholinoethyl)-1H-pyrazol-4-yl)pyridin-3-yloxy)benzo[d]thiazol-2-ylamino)cyclohexanol], for which the inhibition at 1 µM in experiment [1] is 100%; on cKIT, 78%; on PDGFRb, 16%.
As for `O[C@@H]1CCCC[C@H]1Nc1nc2ccc(Oc3cncc(-c4cnc5[nH]ccc5c4)c3)cc2s1` [Compound 61, (1R,2R)-2-(6-(5-(1H-pyrrolo[2,3-b]pyridin-5-yl)pyridin-3-yloxy)benzo[d]thiazol-2-ylamino) cyclohexanol], the values for the inhibition at 1 µM (in experiment [1]; at cKIT; at PDGFRb) were 100%, 84% and 8%, respectively.
The like results for `CN1CCN(c2ccc(-c3cncc(Oc4ccc5nc(N[C@@H]6CCCC[C@H]6O)sc5c4)c3)cn2)CC1` [Compound 62, (1R,2R)-2-(6-(6′-(4-methylpiperazin-1-yl)-3,3′-bipyridin-5-yloxy)benzo[d]thiazol-2-ylamino) cyclohexanol] were, in that order, 100%, 77% and 26%.
Take `O[C@@H]1CCCC[C@H]1Nc1nc2ccc(Oc3cncc(C4CC4)c3)cc2s1` [Compound 65, (1R,2R)-2-(6-(5-cyclopropylpyridin-3-yloxy)benzo[d]thiazol-2-ylamino) cyclohexanol]: the inhibition at 1 µM stood at 100% in experiment [1], 73% on cKIT and 8% at PDGFRb.
For `O[C@@H]1CCCC[C@H]1Nc1nc2ccc(Oc3cncc(-c4ccccn4)c3)cc2s1` [Compound 67], the inhibition at 1 µM in experiment [1] turned out to be 100%; at cKIT, 94%; at PDGFRb it was 36%.
With `O[C@@H]1CCCC[C@H]1Nc1nc2ccc(Oc3cncc(-c4cscn4)c3)cc2s1` [Compound 69, (1R,2R)-2-(6-(5-(thiazol-4-yl)pyridin-3-yloxy)benzo[d]thiazol-2-ylamino) cyclohexanol], the results for the inhibition at 1 µM (in experiment [1]; on cKIT; at PDGFRb) were 100%, 97% and 31%, respectively.

Source of the values: patent US8293769B2, “CSF-1R inhibitors, compositions, and methods of use” (Novartis AG, priority 2008, dated 2012).
